The text below walks through data of article PMC9504842, “Comprehensive Metabolic Profiling of Euphorbiasteroid in Rats by Integrating UPLC-Q/TOF-MS and NMR as Well as Microbial Biotransformation” (Metabolites, 2022).

By IC50 is commonly meant the concentration that inhibits the measured activity by half.

The test system of data set [1] is SH-SY5Y neuroblastoma cells. In words: CCK-8 cell cytotoxicity assay, SH-SY5Y. To be noted: Homo sapiens, read-out: IC50 (μM) SH-SY5Y. It is filed as cell-based. The protocol: (§1) Cell cytotoxicity was determined by the CCK-8 assay. Four strains of human cells (SH-SY5Y) were seeded in 96-well plates at a density of 3 × 10^3 cells/well under 37 °C and 5% CO2 for 12 h and subsequently treated with the test sample solution (euphorbiasteroid and its metabolites, 10 μL) for 72 h. After treatment, each well with 10 μL CCK-8 reagent was incubated for 1–2 h in the incubator. Afterwards, the optical OD-value was measured at 450 nm through a microplate reader. Three multiple wells were set as parallel experimental groups.
(§2) Euphorbiasteroid and its metabolites were tested for their cytotoxicity on human cell lines SH-SY5Y, LO2, AC-16, and HK-2 by the CCK-8 assay. […] Therefore, considering the high content of euphorbiasteroid in Euphorbiae semen, it was speculated that the metabolites from hydroxylation and hydrolysis might be the potential toxic constituents of Euphorbiae semen.
A general note: Tetrazolium assays rely on reduction of a dye to a coloured formazan, in cell work by metabolically active cells.

Another data set has as its system LO2 cells. In words: CCK-8 cell cytotoxicity assay, LO2. It counts as cell-based. To be noted: Homo sapiens, read-out: IC50 (μM) LO2. The protocol:
as §1, §2

A further data set has as its system AC-16 cells. The data set is described as follows: CCK-8 cell cytotoxicity assay, AC-16. It is filed as cell-based. To be noted: Homo sapiens, read-out: IC50 (μM) AC-16. How it is done:
as §1, §2

The test system of the next data set is HK-2 cells. In words: CCK-8 cell cytotoxicity assay, HK-2. It is filed as cell-based. To be noted: Homo sapiens, read-out: IC50 (μM) HK-2. The protocol: as §1, §2
A short description of data set [2]: Metabolite detection in rats (plasma, urine, feces) after oral euphorbiasteroid by UPLC-Q/TOF-MS. It counts as in vivo, Sprague-Dawley rats. To be noted: single oral dose 100 mg/kg euphorbiasteroid. How it is done:
For metabolite separation and detection, chromatographic analyses were performed using a Waters Acquity UPLC I-class system (Waters, Milford, MA, USA), equipped with an auto-sampler, a binary solvent delivery system, an online degasser, and a photodiode array detector. An ACQUITY UPLC® HSS T3 column (2.1 × 150 mm, 1.8 μm, Waters) protected with a HSS T3 VanGuard ™ Pre-Column 3/Pk (2.1 × 5.0 mm, 1.8 μm, Waters) was used. The optimized parameters were set as follows: the mobile phase consisted of eluent A (0.1% formic acid in water, v/v) and eluent B (acetonitrile). The flow rate was 0.3 mL/min. The column and auto-sampler temperatures were maintained at 40 °C and 4 °C, respectively. The gradient elution program was optimized as follows: 0–9 min, 30–70% B; 9–13 min, 70–90% B; 13–17 min, 90–100% B; 17–20 min, 100–100% B.
The mass spectrometry detection was performed on the SYNAPT G2-Si HDMS system, equipped with an electrospray ionization (ESI) source (Waters Corp., Manchester, UK). A positive ion mode was conducted in this analysis. Mass spectrometry conditions were finally set as follows: capillary voltage of 3.0 kV, cone voltage of 40 V, source temperature of 120 °C, and de-solvation temperature of 400 °C. Nitrogen was used as the desolvation and cone gas with a flow rate of 800 and 50 L/h, respectively, and the full-scan mass range was set as m/z 50–1500 Da. In the auto mass spectrometry mode, the collision-induced dissociation energies were set at 0 eV for the precursor ion at the low-energy mode, and the collision-induced dissociation energies were set from 2 to 10 eV for the high-energy mode. Real-time data were calibrated using an external reference (LockSpray™) at a concentration of 0.2 ng/mL with an infusion flow rate of 5 μL/min, generating a reference ion for the positive ion mode (m/z 556.2771) during the UPLC-MS analysis. Data were acquired and processed using MassLynx ™ NT 4.1 software (Waters, Milford, MA, USA).
Male Sprague-Dawley rats (200–220 g) were commercially supplied by Shanghai Sippr-BK Laboratory Animal Co., Ltd. (Shanghai, China) and were housed in a humidity- and temperature-controlled room (50 ± 10% and 22–24 °C) with a 12-h light/dark cycle. The experimental rats were allowed to access food and water ad libitum and acclimatized to the conditions mentioned above for a week, then fasted overnight but with free access to water before the experiments. Euphorbiasteroid was dissolved in soybean oil solution (containing 0.5% ethanol) to form a concentration of 10 mg/mL. A single dose of 100 mg/kg euphorbiasteroid was orally administered to rats and the same concentration of soybean oil solution (containing 0.5% ethanol) was administered as a blank control. All animal procedures were performed in accordance with the Guidelines for Care and Use of Laboratory Animals of Naval Medical University and approved by the Animal Ethics Committee of Naval Medical University.
Blood samples (0.5 mL) were collected from six rats through the orbital sinus before administration (blank sample) and 0.25, 0.5, 1, 2, 4, 6, and 12 h after administration. Plasma samples were prepared by centrifugation at 4000 rpm for 10 min. For urine and feces sampling, 12 rats were divided into an administration group and a blank group, and were placed separately in stainless steel metabolic cages. Urine and feces samples were collected in containers surrounded by ice over 0–6, 6–12, and 12–24 h after drug administration. The mixed urine samples were centrifuged at 4000 rpm for 10 min at 4 °C to obtain the supernatants, and fecal samples were left in a cool and dry place until dry. All the biological samples were frozen at −80 °C before analysis.
An aliquot of 200 µL of plasma and urine samples was put in a 1.5 mL tube, respectively. 800 µL of acetonitrile was added and vortexed for 5 min to extract metabolites. Feces samples (1.0 g) were crushed and then ultrasonically extracted with acetonitrile (10 mL) for 30 min. […]

A short description of data set [3]: In vitro incubation of euphorbiasteroid with rat liver microsomes, metabolite detection. It counts as in vitro ADME. To be noted: 37 °C, 1 h, NADPH regenerating system. The protocol: The microsomal incubation approach was based on previous metabolism studies published by Wintermeyer et al. and Franziska et al.. A 200 μL incubation system containing 10 μL of solution A, 2 μL of solution B, 5 μL of rat liver microsomes (20 mg/mL) and 182 μL 0.1 M PBS buffer (pH = 7.4) was constructed. The above solution was heated in a 37 °C water bath, then 1 μL of euphorbiasteroid (dissolved in DMSO solution, 10 mM) was used to start the reaction, and the mixture was then incubated at 37 °C for 1 h. The reactions were terminated by the addition of 200 μL of ice-cold acetonitrile. The mixture was then centrifuged at 13,000 rpm for 10 min, and a 2-μL aliquot of the supernatant was directly injected into the UPLC-Q-TOF-MS system.
(§3) First, the metabolites of euphorbiasteroid in rats (plasma, urine, and feces), RLMs, and C. elegans culture medium were predicted by setting the prototype components and potential biological metabolic reactions in UNIFI 4.1 software. Then, the predicted metabolites in each sample were further compared according to the characteristic mass spectrum behaviors (including parent ions, internal cleavage in the ion source, and characteristic fragment ions of each metabolite) and retention times.
For orientation: Liver microsomes are a subcellular fraction often used to study metabolism.

For data set [4], the system named is Cunninghamella elegans bio-110930. The data set is described as follows: Microbial transformation of euphorbiasteroid, metabolite detection. To be noted: C. elegans bio-110930 culture with euphorbiasteroid. How it is done:
The biotransformation process was conducted at two scales: preliminary screening and preparative. Preliminary screening scale biotransformation of euphorbiasteroid was carried out in 250 mL Erlenmeyer flasks containing 100 mL of liquid medium. The flasks were placed on a rotary shaker (160 rpm, 28 °C). A standard two-stage fermentation protocol was employed in all experiments. After 2 days of pre-culture, the substrates of 5 mg (dissolved in 0.5 mL of acetone) were added into each flask. Taking 1 mL samples on days 0, 2, 4, 7, 10, and 14, samples were centrifuged and the degree of transformation was compared to controls on TLC and HPLC, and a 2-μL aliquot of the supernatant was directly injected into the UPLC-Q-TOF-MS system. Culture controls consisted of sterile medium, in which microorganisms were grown under identical conditions without substrate. Substrate controls were composed of sterile medium and the same amount of substrate incubated under the same conditions without microorganisms.
as §3

The test system of data set [5] is human cell lines SH-SY5Y, LO2, AC-16, and HK-2. In words: CCK-8 cytotoxicity, summary over four human cell lines. It is filed as cell-based. To be noted: span over SH-SY5Y, LO2, AC-16, HK-2 (and over the named metabolites), read-out: IC50 values against four human cell lines. The protocol: as §1, §2

Read-outs that look alike come from different tables or passages of the source. Where only a bound is given, the exact number is not on record here.

For the molecule `CC(=O)OC1C2C(OC(=O)Cc3ccccc3)C(C)CC2(OC(C)=O)C(=O)C(C)=CC2C(CCC13CO3)C2(C)C` (stereo not drawn) [Compound M0, Euphorbiasteroid], the IC50 in data set [1] (72 h) is 55 ± 1.2 µM; in the data set with LO2 cells (L02, 72 h) it was above 100 µM; in the data set with AC-16 cells (72 h), 97.7 ± 2.13 µM; in the data set with HK-2 cells (HK-2, 72 h) it was above 100 µM.

With `CC(=O)OC1C2C(OC(=O)Cc3ccccc3)C(C)CC2(OC(C)=O)C(=O)C(CO)=CC2C(CCC13CO3)C2(C)C` (stereo not drawn) [Compound M3, 20-hydroxyl euphorbiasteroid], the IC50 was 39.6 ± 0.43 µM in data set [1] (72 h); 37.4 ± 0.41 µM in the data set on LO2 cells (L02, 72 h); 17.9 ± 0.19 µM in the data set with AC-16 cells (72 h); 22.7 ± 0.25 µM in the data set with HK-2 cells (HK-2, 72 h). Besides, the “Distribution Rat Faeces (metabolite detected)” value (“Distribution Rat Faeces” below) in data set [2] is on record as “√”. In addition, in data set [2], the “Distribution Rat Plasma (metabolite detected)” value (shortened to “Distribution Rat Plasma”) is “√”. In data set [2], the “Distribution Rat Urine (metabolite detected)” value (“Distribution Rat Urine” for short) is reported as “√”. In data set [3], the “Distribution RLMs (metabolite detected)” value is “√”. Moreover, the “Distribution Fungi (metabolite detected)” value in data set [4] is “√”.

`CC1=CC2C(CCC3(CO3)C(O)C3C(O)C(C)CC3(O)C1=O)C2(C)C` (stereo not drawn) [Compound M24, epoxylathyrol]: the IC50 in data set [1] (CCK-8, 72 h treatment) was 40.7 ± 0.44 µM; with LO2 cells (L02, CCK-8, 72 h treatment), 38.9 ± 0.42 µM; with AC-16 cells (CCK-8, 72 h treatment), 21.7 ± 0.24 µM; in the data set on HK-2 cells (HK-2, CCK-8, 72 h treatment), 26.5 ± 0.29 µM; in data set [5] it was 3.6 to 40.7 µM. Moreover, the “Distribution Rat Faeces” value in data set [2] was “√”. Further, the “Distribution Rat Plasma” value in data set [2] is “√”. In addition, the “Distribution Rat Urine” value in data set [2] is “√”. The “Distribution RLMs (metabolite detected)” value in data set [3] is “√”.

Turning to `CC(=O)OC1C2C(OC(=O)Cc3ccccc3)C(C)CC2(O)C(=O)C(C)=CC2C(CCC13CO3)C2(C)C` (stereo not drawn) [Compound M25, 15-deacetyl euphorbiasteroid], the IC50 in data set [1] (72 h) is 33.3 ± 0.36 µM; in the data set with LO2 cells (L02, 72 h), 30.1 ± 0.33 µM; with AC-16 cells (72 h) it was 3.6 ± 0.04 µM; in the data set with HK-2 cells (HK-2, 72 h), 16.1 ± 0.18 µM. Also, the “Distribution Rat Faeces” value in data set [2] is reported as “√”. In data set [2], the “Distribution Rat Plasma” value is “√”. For the same molecule, the “Distribution Rat Urine” value in data set [2] is reported as “√”. Besides, the “Distribution RLMs (metabolite detected)” value in data set [3] is “√”.
